In patent US8927500B2, “Peptidomimetic macrocycles” (Aileron Therapeutics, Inc., priority 2012, dated 2015):
Where a SMILES comes first, the peptide text is derived from it. Bridges are numbered along the chain shown (N, C = ends). [ ]: non-standard residue; d: D form. Trp(6-Cl) = N[C@@H](Cc1c[nH]c2cc(Cl)ccc12)C(=O)O; R8 = C=CCCCCCC[C@@](C)(N)C(=O)O; hLeu = CC(C)CC[C@H](N)C(=O)O; S5 = C=CCCC[C@](C)(N)C(=O)O

Tests used:
MDM2 = MDM2 (Homo sapiens, UniProt Q00987); assay: Competitive fluorescence polarization assay for MDM2; assay type: binding; conditions: competitive FP assay, MDM2; for IC50: read-out: IC50 (MDM2); for Ki: read-out: Ki (MDM2)
Caspase 3 = Caspase 3 detection assay in SJSA1 cells; assay type: cell-based; conditions: 48 h, Caspase 3 activation over DMSO-treated cells; for caspase 3 uM: 3 uM peptide; for caspase 10 uM: 10 uM peptide; for caspase 30 uM: 30 uM peptide; for caspase 0.3 uM: 0.3 uM peptide
SJSA-1 cells = assay: Cell lysis by peptidomimetic macrocycles (LDH release); assay type: cell-based; conditions: 1 h at 37C
Description: On the day of the assay, media was exchanged with RPMI 1% FBS media, 90 uL of media per well.
10 mM stock solutions of the peptidomimetic macrocycles were prepared in 100% DMSO.
The negative control (non-lytic) sample was 0.5% DMSO alone and positive control (lytic) samples include 10 uM Melittin and 1% Triton X-100.
Cell plates were incubated for 1 hour at 37C. After the 1 hour incubation, the morphology of the cells is examined by microscope and then the plates were centrifuged at 1200 rpm for 5 minutes at room temperature. 40 uL of supernatant for each peptidomimetic macrocycle and control sample is transferred to clear assay plates.

MDMX = biological target: T1, MDMX (Homo sapiens, UniProt O15151); assay: Competitive fluorescence polarization assay for MDMX; assay type: binding; conditions: competitive FP assay; for IC50: read-out: IC50 (MDMX); for Ki: read-out: Ki (MDMX)
T1 sequence (O15151 1-125): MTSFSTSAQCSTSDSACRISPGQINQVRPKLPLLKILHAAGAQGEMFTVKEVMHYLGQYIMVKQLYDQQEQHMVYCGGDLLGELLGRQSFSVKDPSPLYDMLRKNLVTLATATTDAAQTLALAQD

MDM2, sequence (Q00987 1-125): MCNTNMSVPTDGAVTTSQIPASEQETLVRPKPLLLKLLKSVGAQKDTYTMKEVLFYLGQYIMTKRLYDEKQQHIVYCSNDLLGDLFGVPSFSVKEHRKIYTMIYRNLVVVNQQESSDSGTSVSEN

| Structure (SMILES) | IC50 (MDM2) [nM] | Ki (MDM2) [nM] | caspase 3 uM (Caspase 3) | caspase 10 uM (Caspase 3) | caspase 30 uM (Caspase 3) | 6.25 uM % Lysed cells (1 h LDH) (SJSA-1 cells) [%] | 25 uM % Lysed cells (1 h LDH) (SJSA-1 cells) [%] | 50 uM % Lysed cells (1 h LDH) (SJSA-1 cells) [%] | IC50 (MDMX) [nM] | Ki (MDMX) [nM] | caspase 0.3 uM (Caspase 3) |
| --- | --- | --- | --- | --- | --- | --- | --- | --- | --- | --- | --- |
| CC[C@H](C)[C@H](NC(=O)[C@H](C)NC(=O)[C@H](CO)NC(=O)[C@]1(C)CCCC=CCCCCCC[C@@](C)(NC(=O)[C@H](Cc2ccccc2)NC(=O)[C@@H](NC(=O)[C@H](CC(C)C)NC(C)=O)[C@@H](C)O)C(=O)N[C@@H](C)C(=O)N[C@@H](Cc2ccc(O)cc2)C(=O)N[C@@H](Cc2c[nH]c3ccccc23)C(=O)N[C@@H](C)C(=O)N[C@@H](CCC(N)=O)C(=O)N[C@@H](CC(C)C)C(=O)N1)C(N)=O [compound 8] (Ac-LTF[R8]AYWAQL[S5]SAI-NH2; staple 4-11) | 100 to 1000 | 10 to 100 | 1 | 19 | 25 | −1 | 1 | 1 | 100 to 1000 | 10 to 100 |  |
| CC(=O)N[C@@H](CC(C)C)C(=O)N[C@H](C(=O)N[C@@H](Cc1ccccc1)C(=O)N[C@]1(C)CCCCCC/C=C/CCC[C@@](C)(C(=O)N[C@@H](CO)C(=O)N[C@@H](C)C(=O)N[C@@H](C)C(N)=O)NC(=O)[C@H](CC(C)C)NC(=O)[C@H](CCC(N)=O)NC(=O)[C@H](C)NC(=O)[C@H](Cc2c[nH]c3cc(Cl)ccc23)NC(=O)[C@H](Cc2ccc(O)cc2)NC(=O)[C@H](C)NC1=O)[C@@H](C)O [compound 99] (Ac-LTF[R8]AY[Trp(6-Cl)]AQL[S5]SAA-NH2; staple (E) 4-11) | < 10 | < 10 | 7 | 31 | 33 | 1.5 | 2 | 3.5 | 100 to 1000 | 10 to 100 | 1 |
| CC(=O)N[C@@H](CC(C)C)C(=O)N[C@H](C(=O)N[C@@H](Cc1ccccc1)C(=O)N[C@]1(C)CCCCCC/C=C\CCC[C@@](C)(C(=O)N[C@@H](CO)C(=O)N[C@@H](C)C(=O)N[C@@H](C)C(N)=O)NC(=O)[C@H](CCC(C)C)NC(=O)[C@H](CCC(N)=O)NC(=O)[C@H](C)NC(=O)[C@H](Cc2c[nH]c3ccccc23)NC(=O)[C@H](Cc2ccc(O)cc2)NC(=O)[C@H](C)NC1=O)[C@@H](C)O [compound 114] (Ac-LTF[R8]AYWAQ[hLeu][S5]SAA-NH2; staple (Z) 4-11) | 10 to 100 | < 10 | 6 | 28 | 34 | 3 | 4 | 9 | 100 to 1000 | 10 to 100 | 1 |
| CC(=O)N[C@@H](CC(C)C)C(=O)N[C@H](C(=O)N[C@@H](Cc1ccccc1)C(=O)N[C@]1(C)CCCCCC/C=C/CCC[C@@](C)(C(=O)N[C@@H](CO)C(=O)N[C@@H](C)C(=O)N[C@@H](C)C(N)=O)NC(=O)[C@H](CCC(C)C)NC(=O)[C@H](CCC(N)=O)NC(=O)[C@H](C)NC(=O)[C@H](Cc2c[nH]c3ccccc23)NC(=O)[C@H](Cc2ccc(O)cc2)NC(=O)[C@H](C)NC1=O)[C@@H](C)O [compound 115] (Ac-LTF[R8]AYWAQ[hLeu][S5]SAA-NH2; staple (E) 4-11) | < 10 | < 10 | 10 | 26 | 32 | 0 | −1 | 6 | 100 to 1000 | 10 to 100 | 1 |
